From patent US20020146823A1, “Method for promoting hematopoietic and mesenchymal cell proliferation and differentiation” (The University of Southern California, priority 1997, published 2002)
“Also recorded” adds a separate entry of the source. No end group written: not given here.

Tests used:
[1] = test system: human peripheral blood mononuclear cells (PBMC); test: Respiratory burst (hydrogen peroxide generation) in human PBMC; type: cell-based; conditions: PBMC; presence and absence of PMA
Method: The respiratory burst of leukocytes (macrophages and polymorphonuclear neutrophils) is one component of the mediator system used to kill bacteria. As with phagocytosis, the level of this respiratory burst activity in resident macrophages is low. […] Studies were conducted to assess the effect of in vitro exposure of murine or rat peritoneal macrophages and human peripheral blood mononuclear cells (PBMC) to various concentrations of AII on the capacity to generate hydrogen peroxide via the respiratory burst system. For the human studies, five different donors were examined.
The murine or rat peritoneal cells were harvested by lavage with 5-15 ml of cold PBS with 0.5% bovine serum albumin. The human PBMC were harvested by venipuncture from normal human volunteers and isolated from peripheral blood by Ficoll Hypaque density centrifugation. After isolation, the cells were resuspended at 1×10^6 cells/ml and placed at 100 μl per well into 96 well plates. The cells were incubated with various concentrations of AII or AII analogues and fragments for 4 hours at 37° C. The cells were then preloaded with a fluorescent probe for hydrogen peroxide, 2,7 dichlorofluorescein acetate, which is nonfluorescent in the absence of hydrogen peroxide. Fifteen minutes later, 10 ng/ml of phorbol myristate acetate (+PMA) or PBS (−PMA) was added to stimulate the production of hydrogen peroxide. One hour after stimulation the level of fluorescence produced was measured on a Cytofluor 2350 multiwell fluorometer.

[2] = test system: Rat Peritoneal Macrophages; test: Phagocytic capability of rat peritoneal macrophages (opsonized yeast ingestion); type: cell-based, Sprague Dawley rats
Method: Resident peritoneal macrophages have very little phagocytic activity. Exposure of macrophages to inflammatory or activating agents will increase this macrophage function. Resident peritoneal macrophages were harvested from C57B1/6 mice or Sprague Dawley rats and resuspended at a concentration of 1×10^6 cells/ml in phosphate buffered saline (PBS). Five separate 0.5 ml cell aliquots were placed on a glass coverslip in a 35 mm petri dish. Prior to incubation, either 0.5 ml of PBS, AII, or AII analogues or fragments at between 1-1000 ug/ml final concentration was added to the individual cover slips. The dishes containing the cover slips were then incubated at 37° C. for 4 hours, after which the cover slips were washed 3 to 6 times with PBS. Opsonized yeast particles (Sigma Chemical Co.) (yeast opsonized with adult serum from the same species as that under study) were added to the cover slips and incubated for 2 hours, after which the cover slips were again washed with PBS and inverted onto a glass slide. The number of macrophages that ingested yeast and the number of yeast per macrophage ingested was then determined microscopically. At least 100 macrophages per coverslip were counted. The data from this study are summarized in Tables 3 and 4 and FIGS. 1 and 2.

[3] = Tests of effectiveness of AII fragments (test not specified)
Excerpt: Particularly preferred embodiments of this class include the following: AII, AIII or AII(2-8), […] [SEQ ID NO:2]; […] AII(1-7), […] {SEQ ID NO:4]; AII(2-7). […] [SEQ ID NO:5]; AII(3-7), […] [SEQ ID NO:6]; AII(5-8), […] [SEQ ID NO:7]; AII(1-6), […] [SEQ ID NO:8]; AII(1-5), […] [SEQ ID NO:9]; AII(1-4), […] [SEQ ID NO:10]; and AII(1-3), […] [SEQ ID NO:11]. Other preferred embodiments include: […] [SEQ ID NO:12] and […] [SEQ ID NO:13]. Still another preferred embodiment encompassed within the scope of the invention is a peptide having the sequence […] [SEQ ID NO:31]. AII(6-8), […] [SEQ ID NO:14] and AII(4-8), […] Particularly preferred is angiotensin III of the formula […] [SEQ ID NO:2]. Other preferred compounds include peptides having the structures […] [SEQ ID NO:17] and […] [SEQ ID NO:18].

Substance | respiratory burst capacity after pre-exposure to analogues and fragments of AII [1] | Number of Macrophages with Yeast (Yeast Number) ≧7 ([2]; peptide 100 μg/ml) | #/Cell ([2]; peptide 1000 μg/ml) | % w/Yeast ([2]; peptide 1000 μg/ml) | Number of Macrophages with Yeast (Yeast Number) 0 ([2]; peptide 1000 μg/ml) | Number of Macrophages with Yeast (Yeast Number) 1-3 ([2]; peptide 1000 μg/ml) | Number of Macrophages with Yeast (Yeast Number) 4-6 ([2]; peptide 1000 μg/ml) | Number of Macrophages with Yeast (Yeast Number) ≧7 ([2]; peptide 1000 μg/ml) | effectiveness [3] | #/Cell ([2]; peptide 100 μg/ml) | % w/Yeast ([2]; peptide 100 μg/ml) | Number of Macrophages with Yeast (Yeast Number) 0 ([2]; peptide 100 μg/ml) | Number of Macrophages with Yeast (Yeast Number) 1-3 ([2]; peptide 100 μg/ml) | Number of Macrophages with Yeast (Yeast Number) 4-6 ([2]; peptide 100 μg/ml)
Asp-Arg-Val-Tyr-Ile-His-Pro-Ile [GSD 28] | an increase in the respiratory burst capacity was observed | 0 | 0.02 | 1.0% | 100 | 1 | 0 | 0 |  |  |  |  |  | 
RVYAHPF [GSD 22A] | an increase in the respiratory burst capacity was observed | 0 |  |  | 100 |  |  | 0 |  |  |  |  |  | 
Tyr-Ile-His-Pro-Phe (YIHPF; printed: Tyr-Ile-His-Pro-Phe) [AII(4-8)] |  |  |  |  |  |  |  |  | not to be effective; also recorded: ineffective in repeated tests |  |  |  |  | 
Asp-Arg-Val-Tyr-Ile-His-Pro (DRVYIHP; printed: Asp-Arg-Val-Tyr-Ile-His-Pro) [AII(1-7)] | an increase in the respiratory burst capacity was observed | 0 | 0.85 | 30.8% | 90 | 30 | 10 | 0 |  | 0.53 | 20.6% | 100 | 21 | 5
His-Pro-Phe [AII(6-8)] |  |  |  |  |  |  |  |  | not to be effective |  |  |  |  | 
DRPYIHPF [GSD 24B] | an increase in the respiratory burst capacity was observed | 0 |  |  | 100 |  |  | 0 |  |  |  |  |  | 
